Assay results taken from patent publication US4036957A, “Phenoxy compounds in combinations to suppress gastric bleeding in aspirin therapy” (priority 1975, dated 1977).
Where two headings read alike, the source gives them in different places.

How the values were obtained:
[1] = tested on: Carrageenan pleural effusion; test: Evans Blue-Carrageenan Pleural Effusion Test; format: in vivo, rats; settings: rat
Source text: The effect of metaxalone (Compound 15) on the anti-inflammatory activity of aspirin in rats was studied using a modification of the Evans Blue-Carrageenan Pleural Effusion Test [Sancilio, L. F., Journal of Pharmacology and Experimental Therapeutics 168, 199-204 (1969)].

[2] = tested on: aspirin-induced gastric bleeding; format: in vivo, cats; settings: cat
Protocol: Fasted cats weighing […] were anesthetized with phenobarbital sodium (130 mg/kg, i.p.). Glyceryl guaiacolate was administered intravenously for a total of 2 hrs. beginning 60 min. prior to the topical application of the aspirin (10 mg) to the gastric mucosa. Throughout the experiment, artificial gastric juice (USP, pH 1.3) bathed the mucosa by means of the specially designed chamber. The number of bleeding sites occurring at various exposure sites were recorded at 15, 30 and 60 min. Glyceryl guaiacolate was given at doses of 10 and 30 mg/kg/hr via a previously cannulated jugular vein using an infusion pump (Harvard Apparatus Co., Model 1202). […] An important point is that with 30 mg/kg/hr, i.v., of glyercyl guaiacolate there was no bleeding at 30 min. compared with an average of 14 bleeding sites when no glyceryl guaiacolate was adminsitered. A total of 23 cats were used and there was a minimum of 24 aspirin exposure sites for each dose of glyceryl guaiacolate.

[3] = tested on: aspirin-induced gastric bleeding; test: Prevention of aspirin-induced gastric bleeding in pyloric-ligated rats, i.p. test compound (Examples 1-22); format: in vivo, Female Sprague-Dawley rats; settings: rat; for change in vivo at 50 mg/kg: 50 mg/kg i.p.
Protocol: The prevention of aspirin-induced bleeding in rats was determined by the following procedure. Female Sprague-Dawley rats weighing 150-180 g. were fasted for 24 hours on wire and divided into groups of six animals each. The rats were anesthetized and a ligature placed at the pyloric-duodenal junction. Groups serving as controls received normal saline (4.0 ml/kg, i.p.). […] Some of the compounds were tested at 50 mg/kg, i.p. The rats were sacrificed 60 min. after aspirin administration by cervical dislocation. The volume of the gastric contents was determined and compared against that produced with the same amount of aspirin for change in volume. […] (Gradation between 0 to 40 is on an even scale).

[4] = tested on: aspirin-induced bleeding; settings: rat; for Gastric Bleeding Index / Percent Decrease In Mucosal Hemorrhage vs. Control / Total Hemoglobin Loss / Volume Gastric Secretion: aspirin ca 375 p.o.
Protocol: The effect of glyceryl guaiacolate (Compound 8) on aspirin-induced bleeding in rats was studied using the following procedure. Female Sprague-Dawley rats, weighing 140-160 g. and fasted for 24 hrs. on wire were divided into groups of 10 animals each. All animals were anesthetized with Metofane® and a ligature placed at the pyloric-duodenal junction. Groups serving as controls received normal saline (4.0 ml/kg, i.p.). Some groups received normal saline and in addition were given aspirin (375 mg/kg, p.o.) in artificial gastric juice; the remaining groups received aspirin in the same amount and also glyceryl guaiacolate 30 min. prior to the aspirin. The aspirin was administered in artificial gastric juice (USP, […]) in a total volume of 2 ml. to each rat. Following a recovery period of 1 hr. the animals received saline, aspirin and glyceryl guaiacolate in the amounts and by the routes indicated. In most of the experiments, 90 min. following aspirin the rats were sacrificed by cervical dislocation. The stomachs were removed and gastric contents collected for further analysis. […] Hemoglobin loss produced by the aspirin was determined by the colorimetric method of Bing and Baker (J. Biol. Chem. 92: 589, 1931). The condition of the gastric mucosa was also assessed by determining the incidence and severity of damage using the scoring system described hereinabove to obtain the "Gastric Bleeding Index".
Following the procedure of Example 26, methocarbamol (Compound 3 ) was tested further in rats via intraperitoneal and intraduodenal administration.

[5] = tested on: aspirin-induced gastric bleeding; test: Aspirin-induced gastric bleeding in Cr51 labeled Heidenhain pouch dogs, oral; format: in vivo; settings: dog; for Mucosal Blood Loss, HCl + Aspirin / Mucosal Blood Loss, HCl: ± S.E.; for Mucosal Blood Loss, HCl: without aspirin; for % Change from Control (mucosal blood loss): P >0.05
Protocol: Methocarbamol (Compound 3) and Metaxalone (Compound 15) were evaluated for their effectiveness upon oral administration against aspirin-induced gastric bleeding in dogs. Three female chronic Heindehain pouch dogs were used. Red blood cells from each dog were labeled with Cr^51. The dogs were fasted 24 hours prior to any study and three days elapsed between studies. On experimental days each fundic pouch was rinsed with tepid tap water and then filled with 10 ml. of normal saline. After 30 minutes the saline was replaced with 10 ml. of artificial gastric juice (USP, pH 1.3). The dogs were given Compound 3 (200 mg/kg) or Compound 15 (50 and 100 mg/kg) or placebo (starch) orally in gelatin capsules. The 10 ml. of gastric juice was removed from the pouch after 60 minutes and replaced with another 10 ml. of juice containing 100 mg. of aspirin (80 mesh). This was likewise removed after 60 minutes. All samples collected from the pouches were counted for radio-activity using a deep-well counter. From the amount of radio-activity present in the gastric samples, the loss of blood into the pouch was determined. The results are shown in Table 3 and show the effectiveness of orally administering Compounds 3 and 15 in preventing aspirin-induced gastric bleeding.

[6] = ip, 1 h, aspirin 375 mg/kg p.o., read-out: Percent Decrease in Mucosal Bleeding vs Control
[7] = ip, 1 h, 100 mg/kg i.p., aspirin 375 mg/kg p.o., read-out: Percent Decrease in Mucosal Bleeding vs Control
[8] = score 0 to 40, 100 mg/kg i.p. (column head states no dose), aspirin 375 mg/kg p.o.
[9] = 50 mg/kg i.p., Series 2, ± S.E.
[10] = 50 mg/kg oral, Series 3, ± S.E.
[11] = 100 mg/kg i.p., Series 1, ± S.E., P <0.05
[12] = 100 mg/kg i.p., Series 1, P <0.05
[13] = 100 mg/kg intraduodenal, ± S.E., P <0.05
[14] = 100 mg/kg intraduodenal, P <0.05
[15] = 100 mg/kg oral, Series 3, ± S.E.
[16] = 200 mg/kg i.p., Series 2, ± S.E., P <0.05
[17] = 200 mg/kg i.p., Series 2, P <0.05
[18] = 200 mg/kg intraduodenal, ± S.E., P <0.05
[19] = 200 mg/kg intraduodenal, P <0.05
[20] = 200 mg/kg oral, Series 3, ± S.E.

CC(=O)Oc1ccccc1C(=O)O [Aspirin, aspirin]
Pleural Fluid ([1]; aspirin 150 mg/kg oral, ± S.D., P <0.05): 4.2 ± 0.28 mL
% Decrease in Pleural Fluid vs Control ([1]; aspirin 150 mg/kg oral, P <0.05): 38%
average number of bleeding sites ([2]; 30 min, aspirin 10 mg topical, no glyceryl guaiacolate): 14 bleeding sites

COc1ccccc1OCC(O)CO (centres unmarked) [Compound 8, 3-(2-methoxyphenoxy)-1,2-propanediol]
change in vivo at 50 mg/kg [3, 6]: -57%
change in vivo at 100 mg/kg [3, 7]: -40%
Gastric Bleeding Index [3, 8]: 26.1
effect on pH (gastric) [4]: a similar effect on pH was not observed
volume of gastric secretion (in words) [4]: significant reduction
Gastric Bleeding Index ([4]; 50 mg/kg i.p., Series 2): 26.0 ± 2.6
Percent Decrease In Mucosal Hemorrhage vs. Control ([4]; 50 mg/kg i.p., Series 2): 13.3%
Total Hemoglobin Loss [4, 9]: 26.7 ± 3.1 mg
Volume Gastric Secretion [4, 9]: 6.4 ± 0.4 mL
Gastric Bleeding Index ([4]; 50 mg/kg intraduodenal): 18.0 ± 4.1
Percent Decrease In Mucosal Hemorrhage vs. Control ([4]; 50 mg/kg intraduodenal): 10.0%
Total Hemoglobin Loss ([4]; 50 mg/kg intraduodenal, ± S.E.): 12.4 ± 2.3 mg
Volume Gastric Secretion ([4]; 50 mg/kg intraduodenal, ± S.E.): 5.0 ± 0.2 mL
Gastric Bleeding Index ([4]; 50 mg/kg oral, Series 3): 30.5 ± 2.4
Percent Decrease In Mucosal Hemorrhage vs. Control ([4]; 50 mg/kg oral, Series 3): 14.2%
Total Hemoglobin Loss [4, 10]: 29.4 ± 3.2 mg
Volume Gastric Secretion [4, 10]: 8.0 ± 0.3 mL
Total Hemoglobin Loss [4, 11]: 8.2 ± 2.5 mg
Volume Gastric Secretion [4, 11]: 4.2 ± 0.4 mL
Gastric Bleeding Index [4, 12]: 6.5 ± 4.7
Percent Decrease In Mucosal Hemorrhage vs. Control [4, 12]: 77%
Total Hemoglobin Loss [4, 13]: 7.7 ± 1.2 mg
Volume Gastric Secretion [4, 13]: 3.9 ± 0.2 mL
Gastric Bleeding Index [4, 14]: 9.5 ± 2.5
Percent Decrease In Mucosal Hemorrhage vs. Control [4, 14]: 57.5%
Gastric Bleeding Index ([4]; 100 mg/kg oral, Series 3): 21.0 ± 2.7
Percent Decrease In Mucosal Hemorrhage vs. Control ([4]; 100 mg/kg oral, Series 3): 41.5%
Total Hemoglobin Loss [4, 15]: 26.2 ± 4.6 mg
Volume Gastric Secretion [4, 15]: 6.5 ± 0.3 mL
Total Hemoglobin Loss [4, 16]: 14.5 ± 3.9 mg
Volume Gastric Secretion [4, 16]: 4.1 ± 0.4 mL
Gastric Bleeding Index [4, 17]: 6.0 ± 2.1
Percent Decrease In Mucosal Hemorrhage vs. Control [4, 17]: 80.0%
Total Hemoglobin Loss [4, 18]: 4.4 ± 1.0 mg
Volume Gastric Secretion [4, 18]: 3.5 ± 0.3 mL
Gastric Bleeding Index [4, 19]: 2.0 ± 1.1
Percent Decrease In Mucosal Hemorrhage vs. Control [4, 19]: 90.0%
Percent Decrease In Mucosal Hemorrhage vs. Control ([4]; 200 mg/kg oral, Series 3): 46.5%
Total Hemoglobin Loss [4, 20]: 20.2 ± 1.5 mg
Volume Gastric Secretion [4, 20]: 6.5 ± 0.5 mL
Gastric Bleeding Index ([4]; 200 mg/kg oral, Series 3, P <0.05): 19.0 ± 3.9
loss of blood into the gastric contents ([4]; 100 and 200 mg/kg): markedly reduced
aspirin-induced gastric irritation ([4]; 100 and 200 mg/kg by any route): markedly reduced
bleeding at 30 min ([2]; 30 mg/kg/hr i.v., aspirin 10 mg topical): no bleeding
gastric bleeding produced by aspirin with increasing doses ([2]; 10 and 30 mg/kg/hr i.v.): correspondingly reduced

Cc1cc(C)cc(OCC2CNC(=O)O2)c1 (centres unmarked) [Compound 15, 5-(3,5-dimethylphenoxymethyl)-2-oxazolidinone]
% Protection ([5]; 50 mg/kg p.o.): 77%
Mucosal Blood Loss, HCl + Aspirin ([5]; 50 mg/kg p.o.): 8.6 ± 3.7 µL
Mucosal Blood Loss, HCl ([5]; 50 mg/kg p.o.): 4.4 ± 2.4 µL
% Change from Control (mucosal blood loss) ([5]; 50 mg/kg p.o.): +95%
% Protection ([5]; 100 mg/kg p.o.): 100%
Mucosal Blood Loss, HCl + Aspirin ([5]; 100 mg/kg p.o.): 12.7 ± 3.5 µL
Mucosal Blood Loss, HCl ([5]; 100 mg/kg p.o.): 13.0 ± 1.5 µL
% Change from Control (mucosal blood loss) ([5]; 100 mg/kg p.o.): -2%
preventing aspirin-induced gastric bleeding (in words) ([5]; oral): effectiveness
change in vivo at 50 mg/kg [3, 6]: -98%
change in vivo at 100 mg/kg [3, 7]: -96%
ED50 ([3]; ip): 19.6 mg/kg
change in vivo at 100 mg/kg ([3]; ip, 100 mg/kg i.p. (column head states no dose), aspirin 375 mg/kg p.o., read-out: Vol. % Decrease in Gastric Secretion): -41.4%
Gastric Bleeding Index ([3]; 12.5 mg/kg i.p.): 27.5 ± 4.2
Total Hemoglobin Loss ([3]; 12.5 mg/kg i.p.): 19.3 ± 3.4 mg
Vol. Gastric Secretion ([3]; 12.5 mg/kg i.p.): 6.3 ± 0.3 mL
Percent Decrease in Mucosal Hemorrhage vs Control ([3]; 12.5 mg/kg i.p., P >.05): 21%
Gastric Bleeding Index ([3]; 25.0 mg/kg i.p.): 15.0 ± 5.0
Total Hemoglobin Loss ([3]; 25.0 mg/kg i.p.): 15.3 ± 6.3 mg
Vol. Gastric Secretion ([3]; 25.0 mg/kg i.p.): 5.1 ± 0.3 mL
Percent Decrease in Mucosal Hemorrhage vs Control ([3]; 25.0 mg/kg i.p., P <.025): 57%
Gastric Bleeding Index ([3]; 50.0 mg/kg i.p.): 0.8 ± 0.8
Total Hemoglobin Loss ([3]; 50.0 mg/kg i.p.): 2.5 ± 1.1 mg
Vol. Gastric Secretion ([3]; 50.0 mg/kg i.p.): 3.6 ± 0.5 mL
Percent Decrease in Mucosal Hemorrhage vs Control ([3]; 50.0 mg/kg i.p., P <.001): 98%
Gastric Bleeding Index ([3]; 100.0 mg/kg i.p.): 3.3 ± 1.7
Total Hemoglobin Loss ([3]; 100.0 mg/kg i.p.): 2.5 ± 1.4 mg
Vol. Gastric Secretion ([3]; 100.0 mg/kg i.p.): 3.8 ± 0.4 mL
Percent Decrease in Mucosal Hemorrhage vs Control ([3]; 100.0 mg/kg i.p., P <.001): 91%
preventing aspirin-induced gastric bleeding (in words) ([3]; i.p.): very effective
Gastric Bleeding Index [3, 8]: 0.8
effect on the anti-inflammatory effectiveness of aspirin ([1]; metaxalone 100 mg/kg 30 min before aspirin 150 mg/kg p.o. and again 2 hrs after Carrageenan): no effect
